These results are taken from paper PMC12495306 (RSC Medicinal Chemistry, 2025).

Molecules are shown by their SMILES.

One series relates to HEK293 cells. The experiment in a line: Cell viability / cytotoxicity assay. The format is cell-based, human. The following applies: CellTiter-Glo, 18 h. (ATP-based viability assays read luminescence as a measure of living cells.)
The next series concerns the target T1, ARα2B (Homo sapiens, UniProt P18089).
T1 sequence (P18089 1-450): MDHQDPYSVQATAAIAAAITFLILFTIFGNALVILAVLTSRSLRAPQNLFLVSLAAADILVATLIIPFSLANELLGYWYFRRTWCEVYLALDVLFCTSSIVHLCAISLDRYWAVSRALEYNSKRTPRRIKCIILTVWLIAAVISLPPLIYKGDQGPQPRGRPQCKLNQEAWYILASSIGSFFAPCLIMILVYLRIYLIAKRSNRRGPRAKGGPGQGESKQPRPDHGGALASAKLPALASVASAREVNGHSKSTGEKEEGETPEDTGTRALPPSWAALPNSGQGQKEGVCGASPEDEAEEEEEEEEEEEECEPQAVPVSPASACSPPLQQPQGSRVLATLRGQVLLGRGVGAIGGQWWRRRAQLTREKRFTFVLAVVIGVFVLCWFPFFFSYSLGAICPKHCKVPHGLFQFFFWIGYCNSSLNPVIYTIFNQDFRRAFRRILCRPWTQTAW
The experiment in a line: ARα2B radioligand. The format is binding. The following applies: for inhibition at 10 µM: read-out: ARα2B binding (% inhibition at 10 μM).

Another series addresses T2, ARα2A (Homo sapiens, UniProt P08913).
T2 sequence (P08913 1-465): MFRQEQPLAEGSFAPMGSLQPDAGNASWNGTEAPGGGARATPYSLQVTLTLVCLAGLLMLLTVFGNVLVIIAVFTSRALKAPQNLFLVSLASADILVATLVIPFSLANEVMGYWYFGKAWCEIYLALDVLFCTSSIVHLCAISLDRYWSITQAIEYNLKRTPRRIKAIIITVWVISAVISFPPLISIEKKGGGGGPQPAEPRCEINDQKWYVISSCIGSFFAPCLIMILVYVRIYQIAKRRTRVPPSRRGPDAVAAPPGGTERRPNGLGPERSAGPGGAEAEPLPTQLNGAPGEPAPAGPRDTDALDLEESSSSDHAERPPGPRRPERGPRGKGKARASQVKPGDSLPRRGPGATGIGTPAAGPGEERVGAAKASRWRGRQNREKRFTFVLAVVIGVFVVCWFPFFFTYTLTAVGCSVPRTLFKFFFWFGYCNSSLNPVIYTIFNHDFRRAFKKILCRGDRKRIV
As to the kind of experiment: ARα2A radioligand. The class given is binding. The following applies: ARα2A binding Ki, competition with 3H-Rauwolscinein; concentration response.

Another series addresses T3, ARα2C (Homo sapiens, UniProt P18825).
T3 sequence (P18825 1-462): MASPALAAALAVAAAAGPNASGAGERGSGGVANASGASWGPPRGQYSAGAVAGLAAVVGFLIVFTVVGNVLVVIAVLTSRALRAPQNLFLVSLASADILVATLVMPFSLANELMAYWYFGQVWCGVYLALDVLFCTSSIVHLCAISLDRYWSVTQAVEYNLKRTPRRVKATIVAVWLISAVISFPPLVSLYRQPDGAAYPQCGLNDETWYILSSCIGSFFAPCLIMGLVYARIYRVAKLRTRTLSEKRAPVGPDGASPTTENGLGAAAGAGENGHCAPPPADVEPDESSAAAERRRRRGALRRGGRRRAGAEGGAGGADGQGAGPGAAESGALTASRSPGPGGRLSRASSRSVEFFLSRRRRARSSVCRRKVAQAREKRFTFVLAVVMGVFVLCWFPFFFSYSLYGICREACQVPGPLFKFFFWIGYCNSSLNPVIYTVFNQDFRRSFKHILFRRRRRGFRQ
The experiment in a line: ARα2C radioligand. The format is binding.

Series [1] is described as follows: Aqueous solubility, shake flask method. The format is physicochemical. The following applies: pH 7.4, PBS, 24 h.

Consider `C[C@H]1N=C(c2ccccc2F)c2cc(Br)ccc2NC1=O` [Compound 1, (3R)-7-Bromo-5-(2-fluorophenyl)-3-methyl-1,3-dihydro-2H-1,4-benzodiazepin-2-one], for which the “Cytotoxicity LD50” value with HEK293 cells is above 300 µM. On ARα2B, the inhibition (in general, the drop in the measured response relative to a control, in per cent) at 10 µM was -6%.

Turning to `Cc1ccc(Nc2ccc3c(c2)C(c2ccccc2F)=NC(C)C(=O)N3)cc1` (stereo not shown) [Compound 3, 5-(2-Fluorophenyl)-3-methyl-7-(4-methylanilino)-1,3-dihydro-2H-1,4-benzodiazepin-2-one], the “Cytotoxicity LD50” value in the series with HEK293 cells is 62 ± 15 µM. Moreover, the inhibition constant (Ki) (as a rule, the dissociation constant of the complex between target and ligand, obtained from inhibition or displacement) on ARα2A worked out at 2280 nM; on ARα2C, 2160 nM; on ARα2B, 4640 nM. In addition, the inhibition at 10 µM at ARα2B amounted to 61%.

In the case of `COc1ccc(Nc2ccc3c(c2)C(c2ccccc2F)=NC(C)C(=O)N3)cc1` (stereo not shown) [Compound 4, 5-(2-Fluorophenyl)-7-(4-methoxyanilino)-3-methyl-1,3-dihydro-2H-1,4-benzodiazepin-2-one], in the series with HEK293 cells, the “Cytotoxicity LD50” value came to 87 ± 32 µM. Also, the values for the Ki at ARα2A and at ARα2C were 2070 nM and 2080 nM, respectively. On ARα2B, the inhibition at 10 µM was 41%.

In the case of `CC1N=C(c2ccccc2F)c2cc(Nc3ccc(Cl)cc3)ccc2NC1=O` (stereo not shown) [Compound 5, 7-(4-Chloroanilino)-5-(2-fluorophenyl)-3-methyl-1,3-dihydro-2H-1,4-benzodiazepin-2-one], the “Cytotoxicity LD50” value with HEK293 cells is 87 ± 36 µM. Also, the inhibition constant Ki on ARα2A was 2080 nM; on ARα2C, 1640 nM; at ARα2B it was 1410 nM. In addition, the inhibition at 10 µM on ARα2B stood at 81%.

Regarding `CC1N=C(c2ccccc2F)c2cc(Nc3ccc([N+](=O)[O-])cc3)ccc2NC1=O` (stereo not shown) [Compound 6, 5-(2-Fluorophenyl)-3-methyl-7-(4-nitroanilino)-1,3-dihydro-2H-1,4-benzodiazepin-2-one], the “Cytotoxicity LD50” value with HEK293 cells was determined as 61 ± 10 µM. Moreover, on ARα2A, affinity was put at a Ki of 2620 nM. Moreover, the inhibition at 10 µM on ARα2B amounted to 36%.

Regarding `CSc1ccc(Nc2ccc3c(c2)C(c2ccccc2F)=NC(C)C(=O)N3)cc1` (stereo not shown) [Compound 7, 5-(2-Fluorophenyl)-3-methyl-7-((4-(methylthio)phenyl)amino)-1,3-dihydro-2H-1,4-benzodiazepin-2-one], the “Cytotoxicity LD50” value in the series on HEK293 cells came out at 63 ± 12 µM. In addition, the inhibitory constant (Ki) on ARα2A is 3300 nM; on ARα2C it was 2410 nM. Further, the inhibition at 10 µM at ARα2B was determined as 41%.

With `CC1N=C(c2ccccc2F)c2cc(Nc3ccc(S(C)(=O)=O)cc3)ccc2NC1=O` (stereo not shown) [Compound 8, 5-(2-Fluorophenyl)-7-(4-methanesulfonylanilino)-3-methyl-1,3-dihydro-2H-1,4-benzodiazepin-2-one], in the series with HEK293 cells, the “Cytotoxicity LD50” value is above 150 µM. For the same molecule, the inhibition at 10 µM on ARα2B was -5%.

As to `CC1N=C(c2ccccc2F)c2cc(Nc3ccc(C#N)cc3)ccc2NC1=O` (stereo not shown) [Compound 9, 7-(4-Cyanoanilino)-5-(2-fluorophenyl)-3-methyl-1,3-dihydro-2H-1,4-benzodiazepin-2-one], the “Cytotoxicity LD50” value in the series on HEK293 cells amounted to 83 ± 29 µM. In addition, the inhibition at 10 µM on ARα2B is 23%.

For the molecule `CC1N=C(c2ccccc2F)c2cc(Nc3ccc(O)cc3)ccc2NC1=O` (stereo not shown) [Compound 10, 5-(2-Fluorophenyl)-7-((4-hydroxyphenyl)amino)-3-methyl-1,3-dihydro-2H-1,4-benzodiazepin-2-one], the “Cytotoxicity LD50” value in the series on HEK293 cells is 135 ± 26 µM. Further, at ARα2B, the affinity corresponds to a Ki of 4180 nM and the inhibition at 10 µM came to 52%. The Aqueous solubility – broadly, the concentration that dissolves in the medium under given conditions – in series [1] came to 197.9 ± 4.04 µM.

As to `COC(=O)c1ccc(Nc2ccc3c(c2)C(c2ccccc2F)=NC(C)C(=O)N3)cc1` (stereo not shown) [Compound 11, 5-(2-Fluorophenyl)-7-(4-methoxycarbonylanilino)-3-methyl-1,3-dihydro-2H-1,4-benzodiazepin-2-one], the “Cytotoxicity LD50” value in the series on HEK293 cells turned out to be 88 ± 17 µM. Besides, the Ki on ARα2A was 2250 nM; at ARα2C, 1540 nM. For the same molecule, the inhibition at 10 µM at ARα2B worked out at 44%.

With `CC1N=C(c2ccccc2F)c2cc(Nc3ccc(C(F)(F)F)cc3)ccc2NC1=O` (stereo not shown) [Compound 12, 5-(2-Fluorophenyl)-7-(4-trifluoromethylanilino)-3-methyl-1,3-dihydro-2H-1,4-benzodiazepin-2-one], in the series on HEK293 cells, the “Cytotoxicity LD50” value was above 150 µM. At ARα2A, the Ki is 2590 nM. Also, the inhibition at 10 µM at ARα2B was 38%.

Regarding `CC1N=C(c2ccccc2F)c2cc(Nc3ccccc3C#N)ccc2NC1=O` (stereo not shown) [Compound 13, 7-(2-Cyanoanilino)-5-(2-fluorophenyl)-3-methyl-1,3-dihydro-2H-1,4-benzodiazepin-2-one], the “Cytotoxicity LD50” value in the series with HEK293 cells is above 150 µM. Moreover, the inhibition at 10 µM on ARα2B was 29%.

As to `CCc1ccccc1Nc1ccc2c(c1)C(c1ccccc1F)=NC(C)C(=O)N2` (stereo not shown) [Compound 16, 7-(2-Ethylanilino)-5-(2-fluorophenyl)-3-methyl-1,3-dihydro-2H-1,4-benzodiazepin-2-one], the “Cytotoxicity LD50” value in the series on HEK293 cells was above 300 µM. For the same molecule, at ARα2B, the inhibition at 10 µM is -2%.

With `Cc1cccc(Nc2ccc3c(c2)C(c2ccccc2F)=NC(C)C(=O)N3)c1` (stereo not shown) [Compound 18, 5-(2-Fluorophenyl)-3-methyl-7-(3-methylanilino)-1,3-dihydro-2H-1,4-benzodiazepin-2-one], the “Cytotoxicity LD50” value in the series on HEK293 cells came out at 109 ± 12 µM. Further, the Ki at ARα2A worked out at 2080 nM; on ARα2C, 1180 nM; on ARα2B, 1670 nM. The inhibition at 10 µM at ARα2B was 87%.

With `CC1N=C(c2ccccc2F)c2cc(Nc3cccc(C#N)c3)ccc2NC1=O` (stereo not shown) [Compound 19, 7-(3-Cyanoanilino)-5-(2-fluorophenyl)-3-methyl-1,3-dihydro-2H-1,4-benzodiazepin-2-one], the “Cytotoxicity LD50” value in the series on HEK293 cells is 165 ± 27 µM. Further, on ARα2B, the affinity, expressed as Ki, was 3250 nM and the inhibition at 10 µM was 57%.

As to `Cc1ccc(Nc2ccc3c(c2)C(c2ccccc2F)=NC(C)C(=O)N3)c(C)c1` (stereo not shown) [Compound 20, 5-(2-Fluorophenyl)-7-(2,4-dimethylanilino)-3-methyl-1,3-dihydro-2H-1,4-benzodiazepin-2-one], the “Cytotoxicity LD50” value with HEK293 cells is 88 ± 22 µM. Moreover, on ARα2B, the inhibition at 10 µM came to 33%.

Regarding `CC1N=C(c2ccccc2F)c2cc(N(C)c3ccccc3)ccc2NC1=O` (stereo not shown) [Compound 21, 5-(2-Fluorophenyl)-7-(N-methylanilino)-3-methyl-1,3-dihydro-2H-1,4-benzodiazepin-2-one], the “Cytotoxicity LD50” value in the series with HEK293 cells was determined as 158 ± 27 µM. Moreover, the inhibition at 10 µM at ARα2B came out at 47%.

With `CC1N=C(c2ccccc2F)c2cc(N3CCOCC3)ccc2NC1=O` (stereo not shown) [Compound 22, 5-(2-Fluorophenyl)-3-methyl-7-(morpholin-4-yl)-1,3-dihydro-2H-1,4-benzodiazepin-2-one], in the series with HEK293 cells, the “Cytotoxicity LD50” value is above 300 µM. Besides, the inhibition at 10 µM on ARα2B stood at 27%.

For the molecule `CC1N=C(c2ccccc2F)c2cc(N3CCCCC3)ccc2NC1=O` (stereo not shown) [Compound 23, 5-(2-Fluorophenyl)-3-methyl-7-(piperidin-1-yl)-1,3-dihydro-2H-1,4-benzodiazepin-2-one], the “Cytotoxicity LD50” value in the series on HEK293 cells is above 300 µM. The inhibition at 10 µM on ARα2B was 61%.

Regarding `CC1N=C(c2ccccc2F)c2cc(NCc3ccccc3)ccc2NC1=O` (stereo not shown) [Compound 24, 7-(Benzylamino)-5-(2-fluorophenyl)-3-methyl-1,3-dihydro-2H-1,4-benzodiazepin-2-one], the “Cytotoxicity LD50” value in the series with HEK293 cells is above 150 µM. The inhibition at 10 µM at ARα2B is 46%.

With `CC1N=C(c2ccccc2F)c2cc(NC3CCCCC3)ccc2NC1=O` (stereo not shown) [Compound 26, 7-(Cyclohexylamino)-5-(2-fluorophenyl)-3-methyl-1,3-dihydro-2H-1,4-benzodiazepin-2-one], the “Cytotoxicity LD50” value in the series on HEK293 cells is above 300 µM. The inhibition at 10 µM on ARα2B worked out at 64%.

Turning to `CC1N=C(c2ccccc2F)c2cc(N(C)C)ccc2NC1=O` (stereo not shown) [Compound 27, 7-(Dimethylamino)-5-(2-fluorophenyl)-3-methyl-1,3-dihydro-2H-1,4-benzodiazepin-2-one], the “Cytotoxicity LD50” value in the series with HEK293 cells is above 300 µM. The inhibition at 10 µM at ARα2B stood at 45%.
